Test system: SEM cells
Assay: cell viability relative to DMSO control; higher = less cytotoxic
Details: 48 h
Summary of the method: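 NOMO1, SEM and P12-Ichikawa leukemia cells spent at least four passages adapting to each medium before use. They were seeded at 500 cells/well (NOMO1, SEM) or 1000 cells/well (P12-Ichikawa) in 5 μl in 1536-well plates and pin-dosed with library compounds in DMSO at 11 threefold steps from 47 μM down to 0.79 nM. After 48 h at 37°C, CellTiter-Glo One luminescence was read. Viability is reported as a percentage of the DMSO wells on each plate, with cell-free wells as background.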

[1] = HPLM + 10% dialyzed FBS, 0.000781 µM
[2] = HPLM + 10% dialyzed FBS, 0.00234 µM
[3] = HPLM + 10% dialyzed FBS, 0.00702 µM
[4] = HPLM + 10% dialyzed FBS, 0.0211 µM
[5] = HPLM + 10% dialyzed FBS, 0.0632 µM
[6] = HPLM + 10% dialyzed FBS, 0.19 µM
[7] = HPLM + 10% dialyzed FBS, 0.569 µM
[8] = HPLM + 10% dialyzed FBS, 1.71 µM
[9] = HPLM + 10% dialyzed FBS, 5.12 µM
[10] = HPLM + 10% dialyzed FBS, 15.4 µM
[11] = HPLM + 10% dialyzed FBS, 46.1 µM
[12] = RPMI 5 mM glucose + 10% FBS, 0.000781 µM
[13] = RPMI 5 mM glucose + 10% FBS, 0.00234 µM
[14] = RPMI 5 mM glucose + 10% FBS, 0.00702 µM
[15] = RPMI 5 mM glucose + 10% FBS, 0.0211 µM
[16] = RPMI 5 mM glucose + 10% FBS, 0.0632 µM
[17] = RPMI 5 mM glucose + 10% FBS, 0.19 µM
[18] = RPMI 5 mM glucose + 10% FBS, 0.569 µM
[19] = RPMI 5 mM glucose + 10% FBS, 1.71 µM
[20] = RPMI 5 mM glucose + 10% FBS, 5.12 µM
[21] = RPMI 5 mM glucose + 10% FBS, 15.4 µM
[22] = RPMI 5 mM glucose + 10% FBS, 46.1 µM
[23] = RPMI 5 mM glucose + 10% dialyzed FBS, 0.000781 µM
[24] = RPMI 5 mM glucose + 10% dialyzed FBS, 0.00234 µM
[25] = RPMI 5 mM glucose + 10% dialyzed FBS, 0.00702 µM
[26] = RPMI 5 mM glucose + 10% dialyzed FBS, 0.0211 µM
[27] = RPMI 5 mM glucose + 10% dialyzed FBS, 0.0632 µM
[28] = RPMI 5 mM glucose + 10% dialyzed FBS, 0.19 µM
[29] = RPMI 5 mM glucose + 10% dialyzed FBS, 0.569 µM
[30] = RPMI 5 mM glucose + 10% dialyzed FBS, 1.71 µM
[31] = RPMI 5 mM glucose + 10% dialyzed FBS, 5.12 µM
[32] = RPMI 5 mM glucose + 10% dialyzed FBS, 15.4 µM
[33] = RPMI 5 mM glucose + 10% dialyzed FBS, 46.1 µM

Row | SMILES | cell viability [1] | cell viability [2] | cell viability [3] | cell viability [4] | cell viability [5] | cell viability [6] | cell viability [7] | cell viability [8] | cell viability [9] | cell viability [10] | cell viability [11] | cell viability [12] | cell viability [13] | cell viability [14] | cell viability [15] | cell viability [16] | cell viability [17] | cell viability [18] | cell viability [19] | cell viability [20] | cell viability [21] | cell viability [22] | cell viability [23] | cell viability [24] | cell viability [25] | cell viability [26] | cell viability [27] | cell viability [28] | cell viability [29] | cell viability [30] | cell viability [31] | cell viability [32] | cell viability [33]
1 | O=C(O)CCc1ccc(NCc2cccc(Oc3ccccc3)c2)cc1 | 62.4% | 93.7% | 114% | 103% | 112% | 108% | 98.7% | 122% | 121% | 109% | 123% | 74.2% | 106% | 108% | 90.6% | 124% | 105% | 99.3% | 118% | 110% | 120% | 95.2% | 71.6% | 106% | 126% | 116% | 109% | 112% | 121% | 115% | 127% | 131% | 128%
2 | CCN(CC)CCNC(=O)c1ccc2nc(-c3ccccc3)c(-c3ccc(CN4CCC(n5c(=O)[nH]c6ccccc65)CC4)cc3)nc2c1 | 108% | 116% | 120% | 103% | 83.8% | 54% | 36.8% | 26.7% | 4.83% | 4.21% | 3.45% | 108% | 106% | 124% | 83.8% | 56.4% | 34.4% | 32.9% | 28.9% | 11% | 7.63% | 3.28% | 117% | 112% | 127% | 92.2% | 75.7% | 56.5% | 45.8% | 32.6% | 13.6% | 5.86% | 3.2%
3 | CNCCN(C)Cc1c[nH]nc1-c1ccc(O[C@H]2C[C@H](OCCC3CCOCC3)C2)cc1 | 98.5% | 96.9% | 116% | 110% | 112% | 122% | 116% | 112% | 103% | 60.6% | 35.9% | 101% | 103% | 147% | 117% | 115% | 120% | 107% | 130% | 45.2% | 45.1% | 24.7% | 130% | 111% | 125% | 135% | 156% | 118% | 145% | 156% | 112% | 73.1% | 29.4%
4 | CC[P](CC)(CC)=[Au][S][C@@H]1O[C@H](COC(C)=O)[C@@H](OC(C)=O)[C@H](OC(C)=O)[C@H]1OC(C)=O | – | – | – | – | – | – | – | – | – | – | – | 106% | 120% | 117% | 122% | 115% | 108% | 89.8% | 5.13% | 4.94% | 3.95% | 3.2% | 111% | 106% | 93.8% | 108% | 106% | 113% | 103% | 5.2% | 5.93% | 4.45% | 2.9%
5 | COc1ccc(CC2SC(=O)NC2=O)cc1C(=O)NCc1ccc(C(F)(F)F)cc1 (stereo not drawn) | 75% | 82.5% | 79% | 82.5% | 73.6% | 92.5% | 76.9% | 83.2% | 95.9% | 79.2% | 40.4% | 90% | 86.8% | 101% | 84.1% | 79.8% | 109% | 96.5% | 106% | 101% | 89.9% | 45.2% | 88% | 88.8% | 88.4% | 87.6% | 77.6% | 98.8% | 93.8% | 97.4% | 38.6% | 83.6% | 56.1%
6 | COc1cc([C@@H]2c3cc4c(cc3[C@H](O)[C@H]3COC(=O)[C@H]23)OCO4)cc(OC)c1OC | 78.4% | 52.4% | 20% | 21.5% | 12.9% | 14.8% | 11.1% | 10.8% | 7.23% | 6.55% | 3.29% | 102% | 38.7% | 14.9% | 18.2% | 8.76% | 10.5% | 7.96% | 7.03% | 4.97% | 4.12% | 3.41% | 79.2% | 52.7% | 16.7% | 20.1% | 7.53% | 9.95% | 7.34% | 6.19% | 4.79% | 3.29% | 3.02%
7 | CCC[S+](=O)([O-])Nc1ccc(F)c(C(=O)c2c[nH]c3ncc(-c4ccc(Cl)cc4)cc23)c1F | 115% | 123% | 122% | 115% | 119% | 124% | 134% | 123% | 131% | 115% | 104% | 105% | 126% | 120% | 99.5% | 127% | 126% | 128% | 121% | 128% | 119% | 107% | 113% | 98.5% | 113% | 121% | 125% | 120% | 128% | 113% | 134% | 122% | 109%
8 | CC1(C)NC(=O)N(c2ccc([N+](=O)[O-])c(C(F)(F)F)c2)C1=O | 88.7% | 89.7% | 82.5% | 90.8% | 96.9% | 44.9% | 94% | 90.8% | 81% | 87.4% | 84.6% | 98.7% | 79.5% | 92.9% | 96.7% | 104% | 86% | 99.6% | 94.9% | 110% | 87.7% | 93.9% | 99.4% | 91% | 101% | 109% | 96.3% | 74.5% | 104% | 106% | 106% | 78.9% | 90%

— the supplement of paper PMC11451515
